Data set [1] deals with serotonine plantar oedema. The data set is described as follows: anti-serotonine activity, serotonine plantar oedema. The settings on record: po; rat, orally; read-out: Serotonine plantar oedema AD 50. Format: in vivo, CD (Charles RIVER) rats. From the text: (§1) The anti-serotonine activities of the compounds according to the invention have been shown by oral administration to the CD (Charles RIVER) rats using the technique of the serotonine plantar oedema (W. Theobald and R. Domenjoz--Arzneimittel Forsch, 8, 18, 1958 and with the CD 1 (Charles RIVER) mice using the technique known as "head twitch" according to S. J. Corne, R. W. Pickering and B. T. Warner, Brit. J. Pharmacol., 20, 106, (1963). The anti-serotonine activity has also been determined on the one hand on the tricoloured guinea-pig, given intravenously, according to a method derived from H. Konzet and R. Rossler, Arch. exp. Pathol, Pharmakol., 195, 71, (1940) and on the other hand in vitro with respect to the serotonine spasm of the isolated uterus of the rat according to the technique of A. Fanchamps, W. Doepfener, H. Weidman and A. Cerletti, Schw. Med. Worsch, 90, 1940, (1960).

For data set [2], the system named is head twitch. Description: anti-serotonine activity, head twitch. It counts as in vivo, CD 1 (Charles RIVER) mice. The settings on record: Mus musculus, po; mice, orally; read-out: "Head-twitch" AD 50.
Source text: as §1

The subject of data set [3] is serotonine bronchospasms. Description: anti-serotonine activity, serotonine bronchospasms. The settings on record: Cavia porcellus, iv; guinea pig, intravenously; read-out: Serotonine bronchospasms ED 50. Format: in vivo, tricoloured guinea-pig.
Source text: as §1

The subject of data set [4] is mice. Description: analgesic activity, painful abdominal torsions test with phenylbenzoquinone. It counts as in vivo, CD 1 (Charles RIVER) mice. The following applies: for ED50: Mus musculus, po, mice, orally, read-out: Phenylbenzoquinone test on mice AD 50. An excerpt: The analgesic properties of the products according to the invention have been shown with CD 1 (Charles RIVER) mice in the painful abdominal torsions test with phenylbenzoquinone according to the technique of E. Siegmund, R. Cadmus and Go.Lu--Proc. Soc. Exp. Biol. Med., 95, 729, (1957).

For data set [5], the system named is mouse. Description: spontaneous motility test (hypomotility), mouse. The following applies: po, 1 h, orally, 60 minutes before measuring, 50% reduction of mean motility, first 5 minutes, read-out: Hypomotility ED 50. Format: in vivo, mice. From the text:
(§2) The neuroloptic effects of the compounds according to the invention have been shown with respect to the CD rat (Charles RIVER) taken orally in the catalepsy test according to S. COURVOISIER, R. DUCROT, and L. JULOU, in Psychotropic Drugs, S. GARATTINI and V. GHETTI, Edit.--ELSEVIER Publ. Co., AMSTERDAM, LONDON, NEW YORK, PRINCETON, 1957 P. 373 and also in the traction test of CD1 (Charles RIVER) mice taken orally S. COURVOISIER, Quart. Rev. Psychiat. Neurol. 17, 25 (1956), on the one hand and also in the spontaneous motility test.
This latter technique comprises keeping an account of the displacements of the mice by means of a floor of metal strips which enables the spontaneous activity of the animals to be recorded during the first 5 minutes subsequent to their being introduced into the measuring chamber. The products are dispensed 60 minutes before measuring is effected and 10 mice are used per dose. The results are expressed in ED 50 which represents the dose of substance capable of reducing the mean motility of the treated animals by 50% relative to that of the sample group which has only received the dispensing carrier.

The nature of data set [6]: solubility. Format: physicochemical.
Data set [7] has as its system serotonine. Description: antiserotonine properties on the whole (all four tests). Also noted: species or system rat, mice, guinea pig. The following applies: comparison within the series.
Source text: as §1

Data set [8] can be described thus: acute toxicity, LD 50, CD 1 mice. It counts as in vivo. The following applies: mouse, in vivo. From the text: The acute toxicities of the compounds according to the invention have been determined on CD 1 (Charles RIVER) mice by intravenous and oral methods. The LD 50 of each compound has been calculated by the cumulative method of J. J. Reed and H. Muench, (Amer. J. Hyg., 1938, 27, 493).

In data set [9] the test system is isolated duodenum of the rabbit (acetylcholine). The data set is described as follows: spasmolytic effect on isolated duodenum, acetylcholine spasm. Format: cell-based. The following applies: Oryctolagus cuniculus, read-out: Spasmolytic effects EC 50 with respect to acetylcholine. An excerpt: (§3) Ges. Physiol., 102, 123, (1904) with respect to the spasms of the isolated duodenum of rabbits caused either by acetylchlorine for the spasmolytic nemotropes or by barium chloride for the spasmolytic musculotropes.

Data set [10] concerns dogs. The data set is described as follows: anti-emetic activity, apomorphine vomiting test on dogs. It counts as in vivo. The settings on record: dogs; for ED50: Canis lupus familiaris, po, orally, apomorphine, read-out: Anti-emetic activity on dogs ED 50. An excerpt:
The anti-emetic properties of the compounds according to the invention have been shown by oral administration of apomorphine to dogs in the vomiting test according to G. Chen and C. J. Ensor, Pharmacol. exp. Therap., 98, 24 (1950).

The test system of data set [11] is isolated duodenum of the rabbit (barium chloride). Description: spasmolytic effect on isolated duodenum, barium chloride spasm. Format: cell-based. The settings on record: Oryctolagus cuniculus, read-out: Spasmolytic effects EC 50 with respect to barium chloride.
Source text: as §3

In data set [12] the test system is isolated duodenum of the rabbit. Description: spasmolytic activity overall. Format: cell-based. The settings on record: isolated duodenum of rabbits.
Source text: as §3

Data set [13] relates to rat. The data set is described as follows: catalepsy test, rat. Format: in vivo, CD rat (Charles RIVER). The following applies: po, orally, read-out: Catalepsy AD 50.
Source text: as §2

Data set [14] deals with mouse. The data set is described as follows: traction test, mouse. The settings on record: po, orally, read-out: Traction AD 50. Format: in vivo, CD1 (Charles RIVER) mice.
Source text: as §2

Where [15] appears, read: intravenous, read-out: Acute toxicity for mice LD 50, intravenous.
[16] abbreviates: oral, read-out: Acute toxicity for mice LD 50, orally.

≈ marks a conversion by molar mass, not a printed value. Like-named read-outs stand apart in the source and are kept apart here. Where only a bound is given, the exact number is not on record here.

The values below come from US4166852A, “Piperazino-pyrimidines and their use as spasmolytic agents” (priority 1974, dated 1979).

Take `CCCCNc1nc(Cl)c(SC)c(N2CCN(C)CC2)n1` [Example 31, 2-n.butylamino-4-N-methylpiperazino-6-chloro-5-methylthiopyrimidine]: the ED50 was more than 100 mg/kg in data set [1]; 13 mg/kg in data set [2]; 0.1 mg/kg in data set [3]; 100 mg/kg in [4]; 20 mg/kg in data set [5]; approximately 3 mg/kg in [10]. In data set [6], the “solubility in dilute hydrochloric acid” value is listed as “soluble”. In [6], the “solubility in ethanol (alcohol)” value is “soluble”. Further, in data set [6], the solubility in water entry is recorded as “insoluble”. The “antiserotonine properties ranking” value in [7] was “the greatest antiserotonine properties on the whole”. In addition, the LD50 in data set [8] (setting [15]) is 98 mg/kg; in data set [8] (setting [16]), approximately 225 mg/kg. Besides, the EC50 is 1.2 µg/mL (≈ 3.64 µM) in [9] and 0.3 µg/mL (≈ 0.909 µM) in [11].
As for `CCCNc1nc(Cl)c(SC)c(N2CCN(C)CC2)n1` [Example 30, 2-n.propylamino-4-N-methylpiperazino-6-chloro-5-methylthiopyrimidine], in data set [12], the “spasmolytic activity type / ranking” value is “most effective”. Besides, the ED50 in [2] is 10 mg/kg; in data set [3], 0.05 mg/kg; in data set [13] it was more than 300 mg/kg; in data set [4], more than 400 mg/kg; in data set [5], 25 mg/kg; in [10], 0.16 mg/kg. Moreover, the “solubility in dilute hydrochloric acid” value in data set [6] was “soluble”. Also, the “solubility in ethanol (alcohol)” value in data set [6] is reported as “soluble”. Further, the solubility in water result in data set [6] is on record as “insoluble”. Further, the “antiserotonine properties ranking” value in data set [7] is “the greatest antiserotonine properties on the whole”. For the same molecule, the LD50 in data set [8] (setting [15]) was 60 mg/kg; in [8] (setting [16]), approximately 200 mg/kg. The EC50 in data set [9] is 9 µg/mL (≈ 28.5 µM); in data set [11] it was 0.2 µg/mL (≈ 0.633 µM). Further, the “anti-vomiting ranking” value in data set [10] (comparison within the series) is “the most strong anti-vomiting agents”.
In the case of `CCCCCCNc1nc(Cl)c(SC)c(N2CCN(C)CC2)n1` [Example 25, 2-n.hexylamino-4-N-methylpiperazino-6-chloro-5-methylthiopyrimidine], the ED50 in [1] was approximately 300 mg/kg; in data set [2], 55 mg/kg; in data set [3] it was 0.18 mg/kg; in data set [13], more than 300 mg/kg; in [4] it was 85 mg/kg; in [5], 70 mg/kg. The ED50 in [14] is more than 300 mg/kg; in data set [10], 5 mg/kg. Also, the “spasmolytic activity type / ranking” value in [12] is “most effective”. Besides, the “solubility in dilute hydrochloric acid” value in [6] was “soluble”. For the same molecule, the “solubility in ethanol (alcohol)” value in [6] is “very soluble”. Also, in [6] (solvents), the solubility in solvents result was “very soluble”. In data set [6], the solubility in water result was “insoluble”. Besides, in data set [8] (setting [15]), the LD50 came out at 70 mg/kg. The EC50 came to 1 µg/mL (≈ 2.79 µM) in data set [9] and 0.2 µg/mL (≈ 0.559 µM) in [11].
Turning to `COCCCNc1nc(Cl)c(SC)c(N2CCN(C)CC2)n1` [Example 5, 3'-Methoxy-2-propylamino-4-N-methylpiperazino-6-chloro-5-methylthio-pyrimidine], the ED50 is 90 mg/kg in data set [1], 175 mg/kg in data set [13], 35 mg/kg in data set [4] and 30 mg/kg in [14]. Further, the “spasmolytic activity type / ranking” value in [12] was “most effective”. Also, in [4] (comparison within the series), the “analgesic activity ranking” value is recorded as “the most active”. For the same molecule, in data set [7], the “antiserotonine properties ranking” value is listed as “the greatest antiserotonine properties on the whole”. Moreover, the LD50 in data set [8] (setting [15]) was 56 mg/kg; in data set [8] (setting [16]) it was approximately 200 mg/kg. Further, the EC50 in [9] is more than 5 µg/mL; in data set [11] it was 1.3 µg/mL (≈ 3.76 µM).
For `CCCCCNc1nc(Cl)c(SC)c(N2CCN(C)CC2)n1` [Example 24, 2-n.pentylamino-4-N-methylpiperazino-6-chloro-5-methylthiopyrimidine], the ED50 is more than 300 mg/kg in [1]; 25 mg/kg in data set [2]; 0.05 mg/kg in [3]; 400 mg/kg in data set [13]; 100 mg/kg in data set [4]; 80 mg/kg in data set [5]. The ED50 in data set [14] is 210 mg/kg; in [10], 1.9 mg/kg. Besides, in data set [12], the “spasmolytic activity type / ranking” value is “most effective”. Moreover, the “solubility in dilute hydrochloric acid” value in data set [6] is “soluble”. Besides, the “solubility in ethanol (alcohol)” value in data set [6] is “very soluble”. The solubility in water entry in [6] is given as “insoluble”. For the same molecule, the “antiserotonine properties ranking” value in data set [7] is “the greatest antiserotonine properties on the whole”. Moreover, the figures for the LD50 in data set [8] (setting [15]) and in data set [8] (setting [16]) were 87 mg/kg and approximately 600 mg/kg, respectively. Further, the EC50 in data set [9] amounted to 0.5 µg/mL (≈ 1.45 µM); in data set [11], 0.12 µg/mL (≈ 0.349 µM).
